Results from US12721342B2, “Agricultural composition of indoleacetic acid having increased photostability, process for the production and use thereof” (TOTAL BIOTECNOLOGIA INDÚSTRIA E COMÉRCIO S/A, priority 2021, dated 2026).

What was measured:
[1] = depending on the wavelength and intensity; cited from earlier work
[2] = Photostability to UV light, first assay (IAA concentration by Salkwolski reagent); type: physicochemical
Protocol: For validating the formulation that guarantees photostability of the indoleacetic acid phytohormone, two procedures were carried out. In the first assay, the following was compared: i) synthetic IAA with water (with no protection from melanoidins); ii) synthetic IAA with the same culture medium used in the biological IAA production process of the present invention and iii) biological IAA; all samples being subjected to the sterilization process at 121° C. for approximately 1 hour, as claimed for the stabilization of indole compounds due to the production of melanoidins via Maillard reaction. After the period of time required for stabilization, IAA concentrations were assessed using Salkwolski reagent according to the methodology proposed by Glickmann and Dessaux (1994).

O=C(O)Cc1c[nH]c2ccccc12 [IAA, indoleacetic acid]
reduction of IAA by light decomposition [1]: up to 90%

O=C(O)Cc1c[nH]c2ccccc12 [indoleacetic acid]
photodegradation ([2]; 1 hour of exposure to UV light, samples sterilized at 121° C. for approximately 1 hour): 74.5%
degradation by UV light (in words) ([2]; after 4 hours of exposure to UV light): fully degraded
